{
  "source": "patent US20240335424A1",
  "about": "“COMPOSITIONS AND METHODS FOR TREATING LIPOMA PAIN” (Raziel Therapeutics Ltd., priority 2021, published 2024)",
  "type_in_all_cases": "in vivo, human",
  "key": {"[1]": {"test_system": "Dercum's disease (DD) lipomas", "assay": "Phase 2b clinical trial: lipoma pain by Comparative Pain Scale", "conditions": "for Pain Score: Average per patient, Mean / Pain score: All lipomas, Mean: Comparative Pain Scale 0-10; for Pain score: All lipomas, Mean / Change from baseline in Pain Score: All lipomas, Relative Change from baseline, Mean: per lipoma analysis", "excerpt": "The clinical trial described herein was a double-blind, randomized, placebo-controlled phase 2b clinical trial for the evaluation of safety and efficacy of Compound 1 (5-(3,6-dibromo-9H-carbazol-9-yl)-N,N,N-trimethylpentan-1-aminium, provided as a chloride salt, also designated Compound 1A), in subjects having Dercum's disease (DD) lipomas. Study Objectives. The primary objective was to evaluate the average percent reduction in lipoma height on day 84 after injection vs. baseline in the treatment group compared to the placebo group. Efficacy was determined by ultrasound assessment of the lipoma/nodule dimensions after treatment vs. baseline. The key secondary objective was assessment of lipoma/nodule associated pain using the Comparative Pain Scale. Safety was assessed by frequency of adverse events and by change-from-baseline values for vital signs, clinical laboratory and ECG. Study Design. This was a double blind, multi-center, randomized, placebo-controlled clinical trial in DD subjects having lipomas. A total of 38 DD patients were enrolled into the study. Patients were randomized in approximately a 1:1 ratio into either the intervention or the placebo arm. Twenty (20) subjects, having a total of 125 lipomas, were treated with Compound 1. Eighteen (18) subjects, having a total of 110 lipomas, were treated with placebo. Once the study ended and codes were opened, 84 days after dosing. Subjects received their study treatment on a single occasion in multiple injections. Dosing was calculated according to lipoma size (diameter) as determined by ultrasound. Subjects were dosed in accordance with Table 1. Injections were perpendicular (90°) to injected skin surface and spread randomly, at least 1 cm apart. At least 4 lipomas/nodules, preferably 6, and no more than 8, were injected per subject. Compound 1 dose per injection site was 5 mg, and a distance of 1-3 cm between injection points was maintained, to allow good distribution of Compound 1 within lipoma fat. A maximal dose of up to 240 mg/subject (a total of 48 injections of 5 mg/injection) was allowed in this study and the highest actual tested dose was 200 mg/subject (40 injections into 4-8 lipomas). A total of 20 patients were treated with Compound 1 and a total of 18 patients were treated with placebo. Primary endpoint was the average percent reduction in lipoma/noduleheight on day 84 after injection vs baseline-evaluated by ultrasound in the Compound 1 treatment group compared to the placebo group. Key secondary endpoint was reduction in local pain score per lipoma/nodule on Day 84 vs. baseline as measured by the Comparative Pain Scale. Comparative pain scale ranked the pain from a score from 0 to 10. A score of 0 indicated no pain, a score of 1-3 indicated minor pain, a score of 4-6 indicated moderate pain and a score of 7-10 indicated severe pain. Pain was compared between the intervention (Compound 1) and placebo groups on 2 levels-(1) on the patient level and (2) by lipomas, i.e. comparison between all injected lipomas before and after injection. Study Drug. Compound 1 was administered as a ready to use liquid for injection into subcutaneous fat, supplied in a 1 vial kit. Each vial contains 250 mg Compound 1/5 mL (50 mg/ml) solution Compound 1 in a vehicle comprised of water, propylene glycol and surfactant. The formulation is described in Table 2. Placebo was a solution comprised of vehicle only. Each injection of Compound 1 and placebo contained 0.1 ml. The vehicle was a ready-to-use liquid for injection into subcutaneous fat, supplied in a 1-vial kit. One vial contained 5 mL and had similar composition as the Compound 1 drug product, without the active substance. The components are: Tween-80, propylene glycol, benzyl alcohol, and water. The vehicle was manufactured and packed by […] (Israel) and complies with cGMP requirements. […]"}, "[2]": {"test_system": "Dercum's disease (DD) lipomas", "assay": "Phase 2b clinical trial: lipoma/nodule height by ultrasound", "conditions": "day 84 after injection vs. baseline, compared to placebo", "excerpt": "The clinical trial described herein was a double-blind, randomized, placebo-controlled phase 2b clinical trial for the evaluation of safety and efficacy of Compound 1 (5-(3,6-dibromo-9H-carbazol-9-yl)-N,N,N-trimethylpentan-1-aminium, provided as a chloride salt, also designated Compound 1A), in subjects having Dercum's disease (DD) lipomas. Study Objectives. The primary objective was to evaluate the average percent reduction in lipoma height on day 84 after injection vs. baseline in the treatment group compared to the placebo group. Efficacy was determined by ultrasound assessment of the lipoma/nodule dimensions after treatment vs. baseline. The key secondary objective was assessment of lipoma/nodule associated pain using the Comparative Pain Scale. Safety was assessed by frequency of adverse events and by change-from-baseline values for vital signs, clinical laboratory and ECG. Study Design. […] Dosing was calculated according to lipoma size (diameter) as determined by ultrasound. […] Primary endpoint was the average percent reduction in lipoma/noduleheight on day 84 after injection vs baseline-evaluated by ultrasound in the Compound 1 treatment group compared to the placebo group. Key secondary endpoint was reduction in local pain score per lipoma/nodule on Day 84 vs. baseline as measured by the Comparative Pain Scale. […]"}, "[3]": {"assay": "Phase 2b clinical trial: safety (adverse events, vital signs, clinical laboratory, ECG)", "conditions": "up to 200 mg/subject, subcutaneous injection into lipomas", "excerpt": "The clinical trial described herein was a double-blind, randomized, placebo-controlled phase 2b clinical trial for the evaluation of safety and efficacy of Compound 1 (5-(3,6-dibromo-9H-carbazol-9-yl)-N,N,N-trimethylpentan-1-aminium, provided as a chloride salt, also designated Compound 1A), in subjects having Dercum's disease (DD) lipomas.\nStudy Objectives. The primary objective was to evaluate the average percent reduction in lipoma height on day 84 after injection vs. baseline in the treatment group compared to the placebo group. Efficacy was determined by ultrasound assessment of the lipoma/nodule dimensions after treatment vs. baseline. The key secondary objective was assessment of lipoma/nodule associated pain using the Comparative Pain Scale. Safety was assessed by frequency of adverse events and by change-from-baseline values for vital signs, clinical laboratory and ECG.\nStudy Design. This was a double blind, multi-center, randomized, placebo-controlled clinical trial in DD subjects having lipomas. A total of 38 DD patients were enrolled into the study. Patients were randomized in approximately a 1:1 ratio into either the intervention or the placebo arm. Twenty (20) subjects, having a total of 125 lipomas, were treated with Compound 1. Eighteen (18) subjects, having a total of 110 lipomas, were treated with placebo. Once the study ended and codes were opened, 84 days after dosing.\nAt least 4 lipomas/nodules, preferably 6, and no more than 8, were injected per subject. Compound 1 dose per injection site was 5 mg, and a distance of 1-3 cm between injection points was maintained, to allow good distribution of Compound 1 within lipoma fat. A maximal dose of up to 240 mg/subject (a total of 48 injections of 5 mg/injection) was allowed in this study and the highest actual tested dose was 200 mg/subject (40 injections into 4-8 lipomas). A total of 20 patients were treated with Compound 1 and a total of 18 patients were treated with placebo."}, "[4]": {"conditions": "Day 84, compared to the placebo group"}, "[5]": {"conditions": "Visit 2 - Baseline/Treatment (Day 0), prior to injection"}, "[6]": {"conditions": "Visit 5 - Day 28 post treatment"}, "[7]": {"conditions": "Visit 6 - Day 56 post treatment"}, "[8]": {"conditions": "Visit 7 - Day 84 post treatment"}},
  "note": "“Also recorded” adds a separate entry of the source.",
  "data": [
    {"smiles": "C[N+](C)(C)CCCCCn1c2ccc(Br)cc2c2cc(Br)ccc21", "note": "[Compound 1, 5-(3,6-dibromo-9H-carbazol-9-yl)-N,N,N-trimethylpentan-1-aminium]", "values": [
      {"measurement": "average pain reduction per patient (by-patient analysis)", "setting": "[1]; 84 days after treatment, vs. 36.82% in placebo, P=0.98 as printed", "result": 56.37, "unit": "%"},
      {"measurement": "average pain reduction per lipoma (all-lipoma analysis)", "setting": "[1]; 84 days after treatment, vs. 37.50% in placebo, p=0.0004 t-test, p 0.079 mixed model", "result": 59.06, "unit": "%"},
      {"measurement": "reduction in pain vs. placebo, by-lipoma analysis", "setting": "[1]; [4]", "result": "significant reduction in pain per lipoma; also recorded: statistically significant reduction in pain"},
      {"measurement": "reduction of pain vs. placebo, per-patient analysis", "setting": "[1]; [4]", "result": "a trend for reduction of pain"},
      {"measurement": "Pain Score: Average per patient, Mean", "setting": "[1]; [5]", "result": 4.89},
      {"measurement": "Pain score: All lipomas, Mean", "setting": "[1]; [5]", "result": 4.86},
      {"measurement": "Change from baseline in Pain Score: Average per patient, Relative Change from baseline, Mean", "setting": "[1]; [6]", "result": "−41.76", "unit": "%"},
      {"measurement": "Pain Score: Average per patient, Mean", "setting": "[1]; [6]", "result": 2.82},
      {"measurement": "Pain score: All lipomas, Mean", "setting": "[1]; [6]", "result": 2.72},
      {"measurement": "Change from baseline in Pain Score: All lipomas, Relative Change from baseline, Mean", "setting": "[1]; [6]", "result": "−41.55", "unit": "%"},
      {"measurement": "Change from baseline in Pain Score: Average per patient, Relative Change from baseline, Mean", "setting": "[1]; [7]", "result": "−43.53", "unit": "%"},
      {"measurement": "Pain Score: Average per patient, Mean", "setting": "[1]; [7]", "result": 2.56},
      {"measurement": "Pain score: All lipomas, Mean", "setting": "[1]; [7]", "result": 2.38},
      {"measurement": "Change from baseline in Pain Score: All lipomas, Relative Change from baseline, Mean", "setting": "[1]; [7]", "result": "−46.74", "unit": "%"},
      {"measurement": "Change from baseline in Pain Score: Average per patient, Relative Change from baseline, Mean", "setting": "[1]; [8]", "result": "−56.37", "unit": "%"},
      {"measurement": "Pain Score: Average per patient, Mean", "setting": "[1]; [8]", "result": 2.03},
      {"measurement": "Pain score: All lipomas, Mean", "setting": "[1]; [8]", "result": 1.86},
      {"measurement": "Change from baseline in Pain Score: All lipomas, Relative Change from baseline, Mean", "setting": "[1]; [8]", "result": "−59.06", "unit": "%"},
      {"measurement": "effect of a single dose injected into lipomas on lipoma-associated pain", "setting": "[1]; single dose, via a single injection or multiple injections", "result": "significantly alleviates lipoma-associated pain"},
      {"measurement": "reduction in lipoma height", "setting": "[2]", "result": "not significant"},
      {"measurement": "adverse events, kind", "setting": "[3]", "result": "mostly injection site edema pain and pruritus"},
      {"measurement": "changes in blood parameters", "setting": "[3]", "result": "no clinically significant changes in blood parameters"},
      {"measurement": "serious adverse events", "setting": "[3]", "result": "no reported serious adverse events"},
      {"measurement": "tolerability", "setting": "[3]", "result": "generally well tolerated"}
    ]}
  ]
}
